Laboratory results from patent publication EP4772186A1, “USE AND COMPOSITION OF POSTBIOTIC OF LACTOBACILLUS PARACASEI ET-22” (Inner Mongolia Yili Industrial Group Co., Ltd., priority 2023, dated 2025).

Tested on: indole, hexanoic acid, and propanoic acid
Experiment: SPME-GC-MS of characteristic flavor compounds
Assay type: cell-based, halitosis subjects (saliva)
Description: Fresh saliva was collected from 10 halitosis subjects (Halimeter index >120). Subjects were required not to consume any food or drink for 2 hours before donating saliva. Saliva was directly spat into a saliva collection tube, 5 ml per person, and mixed. The mixture was centrifuged at 4500 rpm for 10 minutes, and the supernatant was collected, aliquoted, and stored at -80°C for subsequent experimental studies.
(§1) Lysate group: In a headspace vial, 100 µl of saliva was added first, followed by separate addition of ET-22 viable bacteria (1.0×10^9 CFU/ml), ET-22 heat-inactivated bacterial cells (obtained by inactivating viable bacteria at 1.0×10^9 CFU/ml), and lysate (obtained by inactivating and then filtering viable bacteria at 1.0×10^9 CFU/ml), each at 100µl. Then, 800 µl of SHI medium was added. After filling with nitrogen, anaerobic cultivation was performed for 10 hours for loading on machine, and then SPME-GC-MS was used to test the change in content of volatile organic compound.
as §1, with “NAD group:” for “Lysate group:”, “by the” for “by”, “by heat-inactivating” for “by inactivating”, “and NAD (100 µg/ml),” for “and lysate (obtained by inactivating and then filtering viable bacteria at 1.0×10^9 CFU/ml),”, “machine,” for “machine, and”, “the changes” for “the change”
as §1, with “2-hydroxy-3-phenylpropionic acid group:” for “Lysate group:”, “by the” for “by”, “by heat-inactivating” for “by inactivating”, “and 2-hydroxy-3-phenylpropionic acid (100 µg/ml),” for “and lysate (obtained by inactivating and then filtering viable bacteria at 1.0×10^9 CFU/ml),”, “the changes” for “the change”
as §1, with “GP(HYP)GAG group:” for “Lysate group:”, “by the” for “by”, “by heat-inactivating” for “by inactivating”, “and GP(HYP)GAG (100 µg/ml),” for “and lysate (obtained by inactivating and then filtering viable bacteria at 1.0×10^9 CFU/ml),”, “the changes” for “the change”
Peptidoglycan group: In a headspace vial, 100 µl of saliva was added first, followed by separate addition of ET-22 viable bacteria (1.0×10^9 CFU/ml), ET-22 heat-inactivated bacterial cells (same as Example 1), and peptidoglycan (same as Example 1), each at 100µl. Then, 800 µl of SHI medium was added. After filling with nitrogen, anaerobic cultivation was performed for 10 hours for loading on machine, and then SPME-GC-MS was used to test the changes in content of volatile organic compound.
Helium was used as a carrier gas, with a rate remaining at 1.1 mL min-1. The injector temperature was set at 250°C. Oven temperature program was as follows: holding at 40°C for 1 min, then ramping to 120°C at a rate of 8°C/min, followed by increasing to 230°C at a rate of 5°C/min and holding for 10 minutes. The mass spectrometer was operated in electron ionization (EI) mode, with ion source temperature of 230°C, interface temperature of 200°C, and M/Z scan range of 30-400. To identify specific compounds, their mass spectra were compared with those of true compounds given in the NIST 17 database (V.05). The minimum matching quality for forward and reverse matches was 75/100. The flavor characteristic of each compound was determined based on data from the Good Scents Company Information System (http://www.thegoodscentscompany.com). […]

[1] = pure components 100 µg/ml, others from 1.0×10^9 CFU/ml, 10 hours
[2] = relative to ET-22 viable bacteria and heat-inactivated bacteria

**Q.** How did the hexanoic acid concentration [1] turn out when `O=C(O)C(O)Cc1ccccc1` (stereo not drawn) [2-hydroxy-3-phenylpropionic acid] was run?
**A.** Its hexanoic acid concentration is “significantly decrease”.

**Q.** And the indole concentration [1]?
**A.** Its indole concentration is “significantly decrease”.

**Q.** What about the propanoic acid concentration [1] of the same compound?
**A.** Its propanoic acid concentration is “significantly decrease”.

**Q.** And the “intervention effect on hexanoic acid” value [2]?
**A.** The value was “better”.

**Q.** And the “intervention effect on indole” value [2]?
**A.** The value was “better”.

**Q.** What about the “intervention effect on propanoic acid” value [2] of the same compound?
**A.** Its value is “better”.
